Holding throughout (type): cell-based, HIV-1
The subject of test [1] is GX2010.36 pseudovirus (CRF01_AE). Particulars: GX2010.36, CRF01_AE, R5; TZM-bl, 48 h; triplicate, mean ± SD of at least three independent experiments. The text has this: (§1) A panel of plasmids encoding HIV-1 Envs were obtained through the AIDS Research and Reference Reagent Program (ARRRP), Division of AIDS, NIAID, NIH, including subtype A Env clones pSVIII-92RW020.5 and 92UG037.8 from Dr. B.H. Hahn; subtype B Env clones SC422661.8, TRO.11 and AC10.0.29 from Drs. D. Montefiori, F. Gao and M. Li, pRHPA4259.7 and pREJO4541.67 from Drs. B.H. Hahn and J.F. Salazar-Gonzalez, and pCAAN5342.A2 from Drs. B.H. Hahn and D.L. Kothe; subtype C Env clones Du172.17 and Du422.1 from Drs. D. Montefiori, F. Gao, S. Abdool Karim and G. Ramjee, CAP45.2.00.G3 from Drs. L. Morris, K. Mlisana and D. Montefiori, ZM197M.PB7 from Drs. B.H. Hahn, Y. Li and J.F. Salazar-Gonzalez, ZM109F.PB4 from Drs. E. Hunter and C. Derdeyn. Six CRF07_BC Env clones (CH064.20, CH070.1, CH091.9, CH110.2, CH119.10 and CH120.6) were generous gifts by Dr. Y. Shao in the Chinese Center for Disease Control and Prevention, Beijing, China. A panel of Env clones derived from subtype B′ (B01, B02, B04, and 43-22), CRF01_AE (SHX335.24, YN192.31, AE01, AE03, GX2010.36, GX11.13, GX2010.36H, BJ5.11), and CRF07_BC (BC02, BC03, BC05, BC07, BC14, SC19-15, BJ22-5, YN148R-9, XJ50-6, HB5-3) were kindly provided by Dr. Y. Wang from the National Institute for the Control of Pharmaceutical and Biological Products, Beijing, China.

The test system of test [2] is YN192.31 pseudovirus (CRF01_AE). As to conditions: YN192.31, CRF01_AE, R5; TZM-bl, 48 h; triplicate, mean ± SD of at least three independent experiments.
Excerpt: as §1

The subject of test [3] is BC14 pseudovirus (CRF07_BC). As to conditions: R5, TZM-bl, 48 h, triplicate, mean ± SD of at least three independent experiments.
Excerpt: as §1

The test system of test [4] is BC07 pseudovirus (CRF07_BC). Particulars: R5, TZM-bl, 48 h, triplicate, mean ± SD of at least three independent experiments.
Excerpt: as §1

Test [5] relates to BJ5.11 pseudovirus (CRF01_AE). Particulars: BJ5.11, CRF01_AE, R5; TZM-bl, 48 h; triplicate, mean ± SD of at least three independent experiments.
Excerpt: as §1

Test [6] deals with XJ50-6 pseudovirus (CRF07_BC). Particulars: XJ50-6, CRF07_BC, R5; TZM-bl, 48 h; triplicate, mean ± SD of at least three independent experiments.
Excerpt: as §1

The test system of test [7] is YN148r-9 pseudovirus (CRF07_BC). As to conditions: YN148r-9, CRF07_BC, R5; TZM-bl, 48 h; triplicate, mean ± SD of at least three independent experiments.
Excerpt: as §1

Test [8] relates to BC03 pseudovirus (CRF07_BC). As to conditions: R5, TZM-bl, 48 h, triplicate, mean ± SD of at least three independent experiments.
Excerpt: as §1

For test [9], the system named is BJ22-5 pseudovirus (CRF07_BC). As to conditions: BJ22-5, CRF07_BC, R5; TZM-bl, 48 h; triplicate, mean ± SD of at least three independent experiments.
Excerpt: as §1

For test [10], the system named is SF162.LS pseudovirus (subtype B). Particulars: R5, TZM-bl, 48 h, triplicate, mean ± SD of three independent experiments.
Excerpt: as §1

In test [11] the test system is CH064 pseudovirus (CRF07_BC). Particulars: R5, TZM-bl, 48 h, triplicate, mean ± SD of at least three independent experiments.
Excerpt: as §1

The test system of test [12] is GX2010.36H pseudovirus (CRF01_AE). Particulars: R5, TZM-bl, 48 h, triplicate, mean ± SD of at least three independent experiments.
Excerpt: as §1

Test [13] has as its system GX11.13 pseudovirus (CRF01_AE). As to conditions: GX11.13, CRF01_AE, R5; TZM-bl, 48 h; triplicate, mean ± SD of at least three independent experiments.
Excerpt: as §1

In test [14] the test system is 92RW020 pseudovirus (subtype A). As to conditions: 92RW020, subtype A, R5; TZM-bl, 48 h; triplicate, mean ± SD of three independent experiments.
Excerpt: as §1

For test [15], the system named is 92UG037.8 pseudovirus (subtype A). As to conditions: 92UG037.8, subtype A, R5; TZM-bl, 48 h; triplicate, mean ± SD of three independent experiments.
Excerpt: as §1

Test [16] deals with AE03 pseudovirus (CRF01_AE). As to conditions: R5, TZM-bl, 48 h, triplicate, mean ± SD of at least three independent experiments.
Excerpt: as §1

Test [17] has as its system Du172.17 pseudovirus (subtype C). Particulars: Du172.17, subtype C, R5; TZM-bl, 48 h; triplicate, mean ± SD of three independent experiments.
Excerpt: as §1

In test [18] the test system is SHX335.24 pseudovirus (CRF01_AE). As to conditions: SHX335.24, CRF01_AE, R5; TZM-bl, 48 h; triplicate, mean ± SD of at least three independent experiments.
Excerpt: as §1

In test [19] the test system is B01 pseudovirus (subtype B′). Particulars: R5, TZM-bl, 48 h, triplicate, mean ± SD of at least three independent experiments.
Excerpt: as §1

Test [20] has as its system CH091 pseudovirus (CRF07_BC). Particulars: R5, TZM-bl, 48 h, triplicate, mean ± SD of at least three independent experiments.
Excerpt: as §1

The test system of test [21] is BC05 pseudovirus (CRF07_BC). As to conditions: R5, TZM-bl, 48 h, triplicate, mean ± SD of at least three independent experiments.
Excerpt: as §1

The IC50 is the concentration that gives 50% inhibition. Read a high IC50 as lower potency.

As for enfuvirtide, the IC50 is 0.0181 ± 0.00375 µM in [1]; 0.0685 ± 0.00325 µM in test [2]; 0.109 ± 0.0526 µM in test [3]; 0.0125 ± 0.00158 µM in [4]; 0.342 ± 0.132 µM in test [5]; 0.0811 ± 0.0176 µM in test [6]. Besides, the IC50 in test [7] is 0.131 ± 0.0147 µM; in [8] it was 0.00346 ± 0.00041 µM; in test [9], 0.0258 ± 0.00417 µM; in test [10] it was 0.0435 ± 0.00916 µM; in test [11], 0.0617 ± 0.0125 µM; in [12], 0.0259 ± 0.00028 µM. For the same substance, the IC50 was 0.0066 ± 0.00032 µM in [13]; 0.0254 ± 0.00981 µM in test [14]; 0.00355 ± 0.00095 µM in [15]; 0.0078 ± 0.00166 µM in [16]; 0.0116 ± 0.00529 µM in test [17]; 0.051 ± 0.00735 µM in test [18]. For the same substance, the IC50 in test [19] turned out to be 0.0495 ± 0.00241 µM; in test [20] it was 0.0659 ± 0.0143 µM; in [21] it was 0.00439 ± 0.00025 µM.

(Values after article PMC3293837, “Biophysical Property and Broad Anti-HIV Activity of Albuvirtide, a 3-Maleimimidopropionic Acid-Modified Peptide Fusion Inhibitor” (PLoS ONE, 2012).)
